ChEMBL document CHEMBL1201862, “PubChem BioAssay data set” (2004)
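These data come from cells grown in 96-well plates and exposed to compound for 48 hours at five concentrations. GI50 marks 50% less growth.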 Activity calls are given as the source filed them. Rule as the data show it: active = GI50 up to about 1.1 µM and inactive = higher.

Experiments:
Test in all cases: NCI anticancer screen, dose series, 48 h
[1] = test system: BT-549
[2] = test system: NCI-H522
[3] = test system: HL-60
[4] = test system: MCF7
[5] = test system: HOP-62
[6] = test system: MOLT-4
[7] = test system: SR
[8] = test system: U-251
[9] = test system: UACC-257
[10] = test system: NCI-H226
[11] = test system: CAKI-1
[12] = test system: HCC 2998
[13] = test system: PC-3
[14] = test system: OVCAR-8
[15] = test system: SF-539
[16] = test system: OVCAR-4
[17] = test system: 786-0
[18] = test system: OVCAR-3
[19] = test system: NCI-H460
[20] = test system: Malme-3M
[21] = test system: A498
[22] = test system: K562
[23] = test system: NCI-H23
[24] = test system: SNB-19
[25] = test system: DU-145
[26] = test system: M14
[27] = test system: MDA-MB-435
[28] = test system: OVCAR-5
[29] = test system: TK-10
[30] = test system: A549
[31] = test system: KM12
[32] = test system: SN12C
[33] = test system: HCT-116
[34] = test system: UO-31
[35] = test system: CCRF-CEM
[36] = test system: EKVX
[37] = test system: SK-MEL-28
[38] = test system: SF-268
[39] = test system: Hs-578T
[40] = test system: COLO 205
[41] = test system: SNB-75
[42] = test system: HCT-15
[43] = test system: SW-620
[44] = test system: IGROV-1
[45] = test system: SK-MEL-2
[46] = test system: HT-29
[47] = test system: SF-295
[48] = test system: MDA-MB-231
[49] = test system: MDA-N
[50] = test system: ACHN
[51] = test system: SK-MEL-5
[52] = test system: NCI/ADR-RES
[53] = test system: LOX IMVI
[54] = test system: RXF 393
[55] = test system: HOP-92
[56] = test system: T47D
[57] = test system: UACC-62
[58] = test system: RPMI-8226
[59] = test system: SK-OV-3

## COC(=O)c1ccc(/C=C/c2cc(O)ccc2O)cc1
[1]
  GI50: 1.11 µM (active)
[2]
  GI50: 0.194 µM (active)
[3]
  GI50: 0.269 µM (active)
[4]
  GI50: 5.14 µM (inactive)
[5]
  GI50: 27.2 µM (inactive)
[6]
  GI50: 0.255 µM (active)
[7]
  GI50: 0.787 µM (active)
[8]
  GI50: 2.51 µM (inactive)
[9]
  GI50: 6.27 µM (inactive)
[10]
  GI50: 12.6 µM (inactive)
[11]
  GI50: 2.43 µM (inactive)
[12]
  GI50: 20 µM (inactive)
[13]
  GI50: 1.48 µM (inactive)
[14]
  GI50: 2.67 µM (inactive)
[15]
  GI50: 1.6 µM (inactive)
[16]
  GI50: 4.5 µM (inactive)
[17]
  GI50: 3.05 µM (inactive)
[18]
  GI50: 1.18 µM (inactive)
[19]
  GI50: 8.45 µM (inactive)
[20]
  GI50: 0.923 µM (active)
[21]
  GI50: 5.15 µM (inactive)
[22]
  GI50: 1.04 µM (active)
[23]
  GI50: 4.39 µM (inactive)
[24]
  GI50: 33.3 µM (inactive)
[25]
  GI50: 14.9 µM (inactive)
[26]
  GI50: 13.1 µM (inactive)
[27]
  GI50: 3.21 µM (inactive)
[28]
  GI50: 5.07 µM (inactive)
[29]
  GI50: 8.43 µM (inactive)
[30]
  GI50: 19.8 µM (inactive)
[31]
  GI50: 3.81 µM (inactive)
[32]
  GI50: 2.38 µM (inactive)
[33]
  GI50: 5.75 µM (inactive)
[34]
  GI50: 1.47 µM (inactive)
[35]
  GI50: 0.242 µM (active)
[36]
  GI50: 2.37 µM (inactive)
[37]
  GI50: 13.9 µM (inactive)
[38]
  GI50: 2.15 µM (inactive)
[39]
  GI50: 4.95 µM (inactive)
[40]
  GI50: 4.97 µM (inactive)
[41]
  GI50: 15 µM (inactive)
[42]
  GI50: 3.01 µM
[43]
  GI50: 3.69 µM (inactive)
[44]
  GI50: 2.62 µM (inactive)
[45]
  GI50: 14.3 µM (inactive)
[46]
  GI50: 30.3 µM (inactive)
[47]
  GI50: 13.1 µM (inactive)
[48]
  GI50: 2.74 µM (inactive)
[49]
  GI50: 3.44 µM (inactive)
[50]
  GI50: 3.19 µM (inactive)
[51]
  GI50: 3.82 µM (inactive)
[52]
  GI50: 2.08 µM (inactive)
[53]
  GI50: 2.24 µM (inactive)
[54]
  GI50: 2.25 µM (inactive)
[55]
  GI50: 2.44 µM (inactive)
[56]
  GI50: 1.6 µM (inactive)
[57]
  GI50: 2.87 µM (inactive)
[58]
  GI50: 0.333 µM (active)

## COc1ccc(/C=C/C2=NN(c3cccc(S(=O)(=O)O)c3)C3(C2)SCC(=O)N3c2nc3ccccc3s2)cc1 (stereo unspecified)
[1]
  GI50: 56.1 µM (inactive)
[2]
  GI50: 35.2 µM (inactive)
[3]
  GI50: > 100 µM (inactive)
[4]
  GI50: 46.8 µM (inactive)
[6]
  GI50: 17.5 µM (inactive)
[7]
  GI50: 19.5 µM (inactive)
[8]
  GI50: 46.2 µM (inactive)
[9]
  GI50: 83.8 µM (inactive)
[10]
  GI50: 24.6 µM (inactive)
[11]
  GI50: > 100 µM (inactive)
[12]
  GI50: > 100 µM (inactive)
[13]
  GI50: 68.7 µM (inactive)
[14]
  GI50: 60.7 µM (inactive)
[15]
  GI50: 33.2 µM (inactive)
[16]
  GI50: 53.1 µM (inactive)
[17]
  GI50: 76.7 µM (inactive)
[19]
  GI50: 50.7 µM (inactive)
[20]
  GI50: > 100 µM (inactive)
[21]
  GI50: 57 µM (inactive)
[22]
  GI50: 31.3 µM (inactive)
[23]
  GI50: 40.1 µM (inactive)
[24]
  GI50: 97.1 µM (inactive)
[25]
  GI50: 66.5 µM (inactive)
[26]
  GI50: > 100 µM (inactive)
[27]
  GI50: 62.4 µM (inactive)
[28]
  GI50: > 100 µM (inactive)
[29]
  GI50: 86.3 µM (inactive)
[30]
  GI50: 90.4 µM (inactive)
[31]
  GI50: > 100 µM (inactive)
[32]
  GI50: > 100 µM (inactive)
[33]
  GI50: > 100 µM (inactive)
[34]
  GI50: 51.1 µM (inactive)
[35]
  GI50: 17.3 µM (inactive)
[36]
  GI50: 64.7 µM (inactive)
[37]
  GI50: > 100 µM (inactive)
[38]
  GI50: 98.6 µM (inactive)
[39]
  GI50: > 100 µM (inactive)
[40]
  GI50: > 100 µM (inactive)
[41]
  GI50: > 100 µM (inactive)
[42]
  GI50: 85.9 µM
[43]
  GI50: > 100 µM (inactive)
[44]
  GI50: 30.8 µM (inactive)
[45]
  GI50: 95.5 µM (inactive)
[46]
  GI50: > 100 µM (inactive)
[48]
  GI50: 67 µM (inactive)
[49]
  GI50: > 100 µM (inactive)
[50]
  GI50: 69 µM (inactive)
[51]
  GI50: 58.9 µM (inactive)
[52]
  GI50: 59 µM (inactive)
[53]
  GI50: 33.1 µM (inactive)
[54]
  GI50: > 100 µM (inactive)
[55]
  GI50: 68.1 µM (inactive)
[56]
  GI50: 16.5 µM (inactive)
[57]
  GI50: 54.3 µM (inactive)
[58]
  GI50: 22.8 µM (inactive)

## O=C1CC(c2ccccc2Cl)C2(C(=O)NC(=S)NC2=O)C(c2ccccc2Cl)C1 (stereo unspecified)
[1]
  GI50: 30.3 µM (inactive)
[2]
  GI50: 34.1 µM (inactive)
[3]
  GI50: 36.5 µM (inactive)
[4]
  GI50: 18.3 µM (inactive)
[5]
  GI50: 34.2 µM (inactive)
[6]
  GI50: 54.7 µM (inactive)
[7]
  GI50: 44 µM (inactive)
[8]
  GI50: 15.3 µM (inactive)
[9]
  GI50: 13.6 µM (inactive)
[10]
  GI50: 28.6 µM (inactive)
[12]
  GI50: 27 µM (inactive)
[13]
  GI50: 23.6 µM (inactive)
[14]
  GI50: 23 µM (inactive)
[15]
  GI50: 58.7 µM (inactive)
[16]
  GI50: 52 µM (inactive)
[17]
  GI50: 21.5 µM (inactive)
[18]
  GI50: 26.5 µM (inactive)
[19]
  GI50: 20 µM (inactive)
[20]
  GI50: 1.56 µM (inactive)
[21]
  GI50: 21.4 µM (inactive)
[22]
  GI50: 37.2 µM (inactive)
[23]
  GI50: 16.7 µM (inactive)
[24]
  GI50: 13.2 µM (inactive)
[25]
  GI50: 34 µM (inactive)
[26]
  GI50: 17.1 µM (inactive)
[27]
  GI50: 14.3 µM (inactive)
[28]
  GI50: 42.1 µM (inactive)
[29]
  GI50: 0.0302 µM (active)
[59]
  GI50: 43 µM (inactive)
[30]
  GI50: 20.8 µM (inactive)
[31]
  GI50: 12.9 µM (inactive)
[32]
  GI50: 25.9 µM (inactive)
[33]
  GI50: 20 µM (inactive)
[34]
  GI50: 46.5 µM (inactive)
[35]
  GI50: 35.6 µM (inactive)
[36]
  GI50: 37.6 µM (inactive)
[37]
  GI50: 49 µM (inactive)
[38]
  GI50: 19 µM (inactive)
[39]
  GI50: 0.465 µM (active)
[40]
  GI50: 31.3 µM (inactive)
[41]
  GI50: 69.8 µM (inactive)
[42]
  GI50: 21.1 µM
[43]
  GI50: 35.7 µM (inactive)
[44]
  GI50: 25.9 µM (inactive)
[45]
  GI50: 37.1 µM (inactive)
[46]
  GI50: 74 µM (inactive)
[47]
  GI50: 22.9 µM (inactive)
[48]
  GI50: 27.2 µM (inactive)
[49]
  GI50: 26.8 µM (inactive)
[50]
  GI50: 24.8 µM (inactive)
[51]
  GI50: 23.9 µM (inactive)
[52]
  GI50: 68.5 µM (inactive)
[53]
  GI50: 16.9 µM (inactive)
[54]
  GI50: 16.9 µM (inactive)
[55]
  GI50: 0.284 µM (active)
[56]
  GI50: 45.6 µM (inactive)
[57]
  GI50: 19.8 µM (inactive)
[58]
  GI50: 34.1 µM (inactive)
